Experimental data: PMC3853197 (PLoS ONE, 2013)
Like-named read-outs stand apart in the source and are kept apart here.

Columns and labels:
F. graminearum PH-1 = format: cell-based, Fusarium graminearum
[1] = tested on: F. graminearum conidia and hyphae; format: cell-based, Fusarium graminearum

Substance | IC100: amount of protein required to inhibit F. graminearum conidial germination completely (F. graminearum PH-1) [µM] | antifungal activity (F. graminearum PH-1; 96 µM) | antifungal activity compared with TMR-GMA4-C (F. graminearum PH-1; 16 h) | binding to the surface of fungal hyphae [1] | entry into fungal cells [1] | antifungal activity of labeled compared with untagged/unlabeled protein or peptide (F. graminearum PH-1) | antifungal activity (F. graminearum PH-1; 24 µM)
GRCRGFRRRCFCTTHC [GMA4-C] | < 6 |  |  |  |  |  | 
RTCENLADKYRGPCFSGCDTHCTTKENAVSGRCRDDFRCWCTKRC [MsDef1, reference compound] | >6 |  |  |  |  |  | 
TAM-GRCAAAARRCFCTTHC [TMR-GMA4-CM] | >96 | no antifungal activity | significantly lower antifungal activity | failed to bind | no indication of entry into fungal cells |  | 
TAM-GRCRGFRRRCFCTTHC [TMR-GMA4-C] | 48 |  |  |  | entered the cytoplasm | considerably less antifungal activity | significant growth inhibition
